According to patent US20050266012A1 (priority 2004, published 2005):

Experiments:
[1] = system: relapsed or refractory acute myelogenous leukaemia (AML) and myolodysplastic syndrome (MDS); conditions: cited from earlier work
solid tumors = conditions: phase II trials, variety of doses and schedules; cited from earlier work
hCgA-pulsed DCs [2] = test: In vivo cytotoxic assay, hCgA-specific cytolysis; conditions: hCgA-immunized BALB/c mice; 5 mg/kg daily intramuscular for 7 days; P<0.01
Method: (§1) Aldrithiol-2 (AT-2)-inactivated HIV (10^9/50 μl) (LU and ANDRIEU, J. Virol., vol. 75, p: 8949-56, 2001) or human chromogranin A (hCgA, a protein associated with neuro-endocrine tumours (DEGORCE et al., Br. J. Cancer., vol. 79, p: 65-71, 1999); 10 μg/50 μl) plus incomplete Freund's adjuvant (IFA) (50 μl) were injected subcutaneously into 4- to 6-week-old male BALB/c mice (Institute of Laboratory Animal Science, Beijing, China). Mice immunized with AT-2-inactivated HIV (n=12) or hCgA (n=12) were randomly divided into two subgroups. One subgroup (n=6) received daily intramuscular injection of 5-azacytidine (Sigma, St Louis, Mo.) at a dose of 5 mg/kg for 7 days and the other subgroup (n=6) received 0.9% sodium chloride as control. Animals were killed at day 7 for ex vivo analysis. In addition, non-immunized mice (n=6) injected with IFA alone were also killed on the same day to establish a background control.
(§2) This assay was performed as described previously (AICHELE et al., Immunity, vol. 6, p: 519-29, 1997). Briefly, target DCs were prepared from BALB/c bone marrow cell suspensions (LUTZ et al., above mentioned, 1999). […] In vivo HIV- or hCgA-specific cytolysis was assessed by calculating the ratio of non-pulsed DCs/pulsed DCs. […]

AT-2-HIV-pulsed DCs [3] = test: Ex vivo cytotoxic assay, HIV-specific cytolysis by splenocytes; assay type: in vivo; conditions: AT-2-HIV-immunized BALB/c mice; 5 mg/kg daily intramuscular for 7 days; P<0.01
Method: as §1, with “In addition, non-immunized mice (n=6) injected with IFA alone were also killed on the same day to establish a background control.” left out
(§3) Splenocytes were taken from 7-day-immunized mice and plated into Micro Tubes-Bulk (Bio-Rad, Hercules, Calif.) in the presence of CFSE (Molecular Probes, PoortGebouw, The Netherlands)-labelled AT-2-HIV- or hCgA-pulsed dendritic cells (DCs) at different E:T ratios for 4 h at 37° C. […] Target cytolysis was analyzed on a FACSCalibur (BD Immunocytometry System, San Jose, Calif.). Virus- or tumour-specific cytolytic activity was determined by calculating the percentage of CFSE/PI-staining DCs after subtraction of the non-specific CFSE/PI-staining of non-pulsed DCs. […]

latent EBV promoters = conditions: patients with EBV-associated tumors; cited from earlier work
hCgA-pulsed DCs [4] = test: Ex vivo cytotoxic assay, hCgA-specific cytolysis by splenocytes; assay type: in vivo; conditions: hCgA-immunized BALB/c mice; 5 mg/kg daily intramuscular for 7 days; P<0.01
Method: as §1, with “In addition, non-immunized mice (n=6) injected with IFA alone were also killed on the same day to establish a background control.” left out
as §3

AT-2-HIV-pulsed DCs [5] = test: In vivo cytotoxic assay, HIV-specific cytolysis; conditions: AT-2-HIV-immunized BALB/c mice; 5 mg/kg daily intramuscular for 7 days; P<0.01
Method: as §1, §2

[6] = system: P16 transcription from a methylation-silenced promoter; conditions: prostate cancer cells that grow in nude mice; cited from earlier work

Row | SMILES | Clinical activity as single agent [1] | Clinical results of single agent in solid tumors (solid tumors) | Increase of in vivo hCgA-specific cytolysis of hCgA-pulsed DCs vs untreated immunized animals (hCgA-pulsed DCs [2]) [fold] | Increase of ex vivo HIV-specific cytolysis of AT-2-HIV-pulsed DCs by splenocytes vs untreated immunized animals (AT-2-HIV-pulsed DCs [3]) [fold] | CpG methylation of latent EBV promoters in tumor tissues (latent EBV promoters) | Increase of ex vivo hCgA-specific cytolysis of hCgA-pulsed DCs by splenocytes vs untreated immunized animals (hCgA-pulsed DCs [4]) [fold] | Increase of in vivo HIV-specific cytolysis of AT-2-HIV-pulsed DCs vs untreated immunized animals (AT-2-HIV-pulsed DCs [5]) [fold] | P16 transcription from a methylation-silenced promoter [6]
1 | Nc1ncn([C@@H]2O[C@H](CO)[C@@H](O)[C@H]2O)c(=O)n1 [5-Azacytidine] | limited activity | uniformly disappointing | > 3 | > 2 | reversed the dense CpG methylation | > 2 | > 3 | –
2 | CCN(CC)CCNC(=O)c1ccc(N)cc1 [procanaimide] | – | – | – | – | – | – | – | reactivate the P16 transcription
